Experimental findings from a melting point compilation (Tetko et al.) are described below.

By melting point is commonly meant the temperature, or range, at which the solid turns liquid. Regarding `NC(=O)c1cccnc1Oc1ccccc1`, the melting point lay in the range of 162 to 163 °C.
Molecule `CCC(C)Nc1ccc(NC(C)CC)cc1` (centres undefined) yielded a melting point of 18 °C.
Regarding `O=Cc1ccccc1OCc1c(Cl)cccc1Cl`, the melting point is 109 to 112 °C.
Regarding `C=CC(Cl)(Cl)Cl`, the melting point is -30 °C.
Molecule `NNC(=O)c1csc(CS(=O)(=O)c2ccc(Cl)cc2)n1` showed a melting point of 206 to 207 °C.
Under `CCCCCCC(C)CCC` (centres undefined) stands -77.5 °C; under `N#CCCNCCC#N`, -6 °C; under `CC(=NNC(N)=O)c1cccc(C(C)=NNC(N)=O)c1`, 238 °C.
Molecule `OCC(F)(F)C(F)(F)C(F)(F)C(F)(F)CO` had a melting point of 69 °C.
Under `CCCCC1=NC2(CCCC2)C(=O)N1Cc1ccc(-c2ccccc2-c2nnn[nH]2)cc1` stands 180 °C; under `O=[N+]([O-])C=Cc1ccccc1C(F)(F)F`, 60 to 62 °C.
Turning to `CC1CCC2(NC1)OC1CC3C4CCC5CC(O)CCC5(C)C4CCC3(C)C1C2C` (centres undefined), the melting point amounted to 210 °C.
As to `Cc1ccc(I)cc1N`, the melting point worked out at 47.5 °C.
Under `CC(C)(C)OC(=O)N1CCN(c2ccccc2N)CC1` stands 120 to 122 °C; under `COc1cc2c(N)nc(N3CCN(C(=O)OCC(C)(C)O)CC3)nc2c(OC)c1OC`, 158 °C.
With `O=C(O)C=Cc1cccc([N+](=O)[O-])c1`, the melting point was in the range of 202 to 204 °C.
The molecule `COC(=O)c1sccc1N1C(=O)C=CC1=O` came in with a melting point of 130 to 131 °C.
Under `COc1ccc(F)cc1C=O` stands 41 to 46 °C.
Molecule `CC12C=CC=CC1NC(=C1C(=O)c3ccccc3C1=O)C=C2` (centres undefined) showed a melting point of 203 °C.
Molecule `ClC1=C(Cl)C2(Cl)C3C4C=CC(C4)C3C1(Cl)C2(Cl)Cl` (centres undefined) showed a melting point of 240 °C.
On to `O=C(O)c1cc(-c2ccc(Cl)cc2)oc1C(F)(F)F`, for which the melting point lay in the range of 192 to 193 °C.
Take `O=[N+]([O-])c1cnc(Cl)c([N+](=O)[O-])c1`: the melting point was in the range of 63 to 66 °C.
Under `O=C(O)CC[C@H](NC(=O)OCc1ccccc1)C(=O)O` stands 118 to 121 °C.
The molecule `c1ccc(-c2nnc3n2NC(c2ccccc2)S3)cc1` (centres undefined) came in with a melting point of 83 °C.
Under `Nc1csc2nccnc12` stands 88 to 89 °C.
Under `Cc1c(C)c(C)c2c(c1C)CC1(OC2=O)C(=O)c2ccccc2C1=O` stands 257 °C; under `Cc1cccc2c1CC2=O`, 56 °C; under `CCOC(=O)C1(c2cccc(O)c2)CCN(C)CC1`, 110 °C.
As for `N#Cc1ccc2c(c1)[N+]([O-])=C(c1cccc(C3=[N+]([O-])c4cc(C#N)ccc4C3=O)c1)C2=O`, the melting point was 270 to 320 °C.
For `FC(F)(F)c1nc2ccccc2[nH]1`, the melting point was found to be 210 °C.
`Cc1ccc(N2CSc3nnc(-c4cccc([N+](=O)[O-])c4)n3C2)cc1` displayed a melting point of over 300 °C.
Molecule `COC(=O)C(=Cc1ccc(O)cc1)C(=O)OC` had a melting point of 155 to 160 °C.
The same measure for `COC(=O)C1(S(=O)(=O)c2ccccc2)CC1`: 74.5 °C; for `COc1ccc2c(C)cc(=O)oc2c1`: 161 °C; for `CCCC1C(=O)C2(C)CCC1C2(C)C` (centres undefined): 128 °C.
Under `COC1CC2C3(C)CCCC2(COC3=O)C2C(OC(C)=O)CC3C(C)C(=O)C12C3O` (centres undefined) stands 105 °C; under `CC(=O)Cc1ccccc1C(=O)OCC(=O)N(C)CCO`, 70.5 °C; under `O=C(O)C(=S)Cc1cccc(CC(=S)C(=O)O)c1`, 85 °C.
Under `CC(C)(C)OC(=O)N1CCN(Cc2ccc(CO)cc2)CC1` stands 52 to 53 °C.
As for `Cn1ccc(=O)[nH]c1=O`, the melting point was 237 °C.
`CCSc1nnc(CCn2c(C)nc3ccccc32)n1-c1ccccc1` had a melting point of 110 °C.
Under `COc1ccc(C(=O)c2cc(OC)c(OC)cc2[N+](=O)[O-])cc1` stands 147 °C; under `C(=Cc1ccccn1)c1ccccn1`, 118 °C.
`O=C(O)CCc1cc(Br)c(O)c(Br)c1` displayed a melting point of 108 to 110 °C.
On to `COc1ccc(/C=C(\C#N)c2nc(-c3ccco3)cs2)cc1`, for which the melting point was determined as 109 °C.
`O=C1C=C(Nc2cccc(O)c2)c2ccccc2C1=O` returned a melting point of 300 °C.
Consider `OC(CBr)C(O)CBr` (racemic), for which the melting point lay within 82 to 84 °C.
Turning to `CCc1c(O)c(=O)ccn1N1CCOCC1`, the melting point was found to be 258 °C.
Turning to `COc1ccc(-c2csc(/C(C#N)=C\c3cccnc3)n2)cc1`, the melting point was found to be 235 °C.
With `CCC(C=O)(CC)CCC#N`, the melting point turned out to be 97 °C.
Regarding `Nc1ccc(C2=NNC(=O)CC2)cc1`, the melting point is 242 to 244 °C.
As for `COc1ccc([N+](=O)[O-])c(N)c1`, the melting point came out at 131 °C.
On to `O=C1C=C(NCc2cccc(Cl)c2)C(=O)c2ccccc21`, for which the melting point was determined as 191 °C.
Under `O=CN(C=O)N(C=O)C=O` stands 180 to 183 °C; under `O=Cc1ccc(-c2ccccc2[N+](=O)[O-])o1`, 96 to 98 °C; under `CCCOc1ccc(C#N)cc1`, 41 °C.
In the case of `COc1ccccc1/C=C(\C#N)c1nc2ccccc2n1C`, the melting point was 226 °C.
Molecule `Nc1cc(-c2cccs2)n[nH]1` showed a melting point of 101 °C.
As for `Fc1c(F)c(F)c(Br)c(Br)c1F`, the melting point is 12 °C.
`CN1C2CCC1CC(OC(=O)C(O)c1ccccc1)C2` (centres undefined) yielded a melting point of 99.5 °C.
The same measure for `COc1cccc2c(O)c3ccccc3nc12`: 284 to 287 °C; for `O=C(Cl)c1cc2c(Cl)cc(Cl)cc2[nH]1`: 173 to 175 °C.
As to `Nc1cccc(Oc2ccccn2)c1`, the melting point lay within 76 to 78 °C.
For the molecule `NS(=O)(=O)c1cc2c(cc1Cl)NCNS2(=O)=O`, the melting point amounted to 267 °C.
Consider `COc1ccc(C=Cc2ccccc2)cc1`, for which the melting point lay within 135 to 138 °C.
Regarding `CSc1ncc(Br)c(C(=O)O)n1`, the melting point was 156 to 157 °C.
In the case of `N#Cc1c(F)c(F)c(C#N)c(F)c1F`, the melting point is 198 °C.
`COC(=O)c1ccc2cc(Br)ccc2c1`: the melting point fell in the range of 123 to 126 °C.
As to `COCCN(C(=O)CCl)c1c(C)cccc1C`, the melting point came to 46.3 °C.
In the case of `CCOC(=O)c1c[nH]c(=S)[nH]c1=O`, the melting point is 252 °C.
The same measure for `CC1C(=O)OC(C)(C)OC1=O`: 109 to 113 °C; for `CN(C)c1ccc(C(Cl)=NO)cc1`: 165 °C.
`COc1cc(OC)nc(NC(=O)NS(=O)(=O)c2cc(NC=O)ccc2C(=O)N(C)C)n1`: the melting point came out at 194 °C.
`Cc1cc(Cl)c2ccccc2n1` showed a melting point of 39 to 41 °C.
The molecule `Nc1ccc(/C=C\c2ccc(N)cc2)cc1` registered a melting point of 121 °C.
With `CCc1n[nH]c2c1C(c1ccccc1)C(C#N)=C(N)O2` (centres undefined), the melting point lay in the range of 192 to 196 °C.
Under `CCOC(=O)CNc1ccc(I)cc1` stands 84 to 86 °C.
`CC(C)(C)C(=O)CC(=O)C(F)(F)C(F)(F)C(F)(F)F` had a melting point of 38 °C.
`C#CCCCCCCCCCC`: the melting point was -19 °C.
